# Active and inactive are the calls of the source.
# Tests used:
# BJ [1] = assay: cytotoxicity toward BJ-TERT fibroblasts, dose response, cell-based, RAS-independent, luminescence (AID 1933); assay type: functional; settings: Homo sapiens
# BJ [2] = assay: cells; assay type: functional, cell-based; settings: Homo sapiens
# [3] = Luminescence-based dose response cell-based high throughput screening assay for cytotoxic compounds using the IEC-6 intestinal epithelial cell line. [Related pubchem assays: 1858 (Summary AID.), 1825 (Counterscreen.), 1907 (Confirmation screen.)]; assay type: functional
# BJ [4] = assay: cytotoxicity toward BJ-TERT-LT-ST fibroblasts, dose response, cell-based, RAS-independent, luminescence (AID 1935); assay type: functional; settings: Homo sapiens;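 note: BJ fibroblasts immortalized with TERT plus LT and ST oncogenes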
# [5] = cytotoxicity toward DRD oncogenic fibroblasts, dose response, cell-based, non-viral oncogenic, luminescence (AID 1934); assay type: functional; settings: Homo sapiens
# [6] = cytotoxicity in HEK-293T cells, dose response, cytotoxicity control for TCR NF-kB inhibitor project, luminescence, T-cell screen hits (AID 489026); assay type: functional, cell-based;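 note: cells exposed to compound about 14 hours before the viability readout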
# [7] = M. tuberculosis H37Rv growth inhibitors, H37Rv strain (AID 1626); assay type: functional
# Cytochrome P450 2C9 = Cytochrome P450 2C9 (Homo sapiens, UniProt P11712)
# Cytochrome P450 2C9, sequence (P11712 whole entry): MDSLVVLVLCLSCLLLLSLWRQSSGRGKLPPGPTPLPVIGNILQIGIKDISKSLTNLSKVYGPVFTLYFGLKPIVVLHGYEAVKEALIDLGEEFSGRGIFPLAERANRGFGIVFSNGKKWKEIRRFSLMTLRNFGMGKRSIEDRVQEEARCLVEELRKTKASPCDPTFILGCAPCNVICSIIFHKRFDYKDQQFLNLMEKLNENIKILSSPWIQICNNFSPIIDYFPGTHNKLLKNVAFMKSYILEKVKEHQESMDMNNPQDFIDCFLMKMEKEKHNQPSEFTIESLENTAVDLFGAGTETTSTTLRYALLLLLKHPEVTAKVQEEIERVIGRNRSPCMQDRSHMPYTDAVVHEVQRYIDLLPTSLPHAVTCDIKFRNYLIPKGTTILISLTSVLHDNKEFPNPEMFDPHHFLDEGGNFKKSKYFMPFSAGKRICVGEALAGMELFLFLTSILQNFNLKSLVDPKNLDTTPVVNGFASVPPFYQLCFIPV
# [8] = biological target: Sphingosine 1-phosphate receptor 2 (Homo sapiens, UniProt O95136); assay: Dose Response Cell Based Assay for Agonists of the S1P2 Receptor of Purchased Analogues. [Related pubchem assays: 729, 843, 854, 736 ]; assay type: functional
# Sphingosine 1-phosphate receptor 2, sequence (O95136 whole entry): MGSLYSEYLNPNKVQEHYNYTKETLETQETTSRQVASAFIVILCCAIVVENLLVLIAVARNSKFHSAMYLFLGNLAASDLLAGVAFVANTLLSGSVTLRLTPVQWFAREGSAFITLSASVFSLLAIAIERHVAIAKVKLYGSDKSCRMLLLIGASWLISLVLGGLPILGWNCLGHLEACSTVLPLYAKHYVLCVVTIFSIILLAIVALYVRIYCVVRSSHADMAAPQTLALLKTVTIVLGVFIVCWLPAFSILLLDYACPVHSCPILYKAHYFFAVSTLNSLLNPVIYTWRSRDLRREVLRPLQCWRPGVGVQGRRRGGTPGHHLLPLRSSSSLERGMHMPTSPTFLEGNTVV
# Leucine aminopeptidase = biological target: T1, Leucine aminopeptidase (Plasmodium falciparum 3D7, UniProt Q8IL11); assay: P. falciparum M17LAP inhibitors, primary screen, biochemical, fluorogenic H-Leu-NHMec substrate, 1536-well (AID 1619); assay type: functional
# T1 sequence (Q8IL11 whole entry): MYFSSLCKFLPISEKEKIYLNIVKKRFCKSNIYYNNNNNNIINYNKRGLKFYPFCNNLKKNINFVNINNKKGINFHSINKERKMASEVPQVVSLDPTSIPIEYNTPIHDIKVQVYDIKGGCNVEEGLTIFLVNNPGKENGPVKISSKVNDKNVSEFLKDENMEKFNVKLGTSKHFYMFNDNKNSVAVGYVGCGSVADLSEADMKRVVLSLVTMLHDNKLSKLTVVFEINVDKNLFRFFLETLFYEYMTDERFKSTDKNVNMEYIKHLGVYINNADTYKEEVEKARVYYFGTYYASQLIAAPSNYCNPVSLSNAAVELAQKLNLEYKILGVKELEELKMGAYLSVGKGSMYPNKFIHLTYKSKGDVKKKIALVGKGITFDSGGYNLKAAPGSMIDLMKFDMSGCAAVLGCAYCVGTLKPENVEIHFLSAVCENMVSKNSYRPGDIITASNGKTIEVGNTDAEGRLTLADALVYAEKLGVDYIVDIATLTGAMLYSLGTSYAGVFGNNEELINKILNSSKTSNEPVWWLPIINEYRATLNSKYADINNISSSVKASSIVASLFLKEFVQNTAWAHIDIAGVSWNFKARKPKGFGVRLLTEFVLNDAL
# Aspartyl aminopeptidase = Aspartyl aminopeptidase (Plasmodium falciparum 3D7, UniProt Q8I2J3); assay: Counterscreen for inhibitors of M1 and M17 aminopeptidases: QFRET-based biochemical high throughput dose response assay for inhibitors of the Plasmodium falciparum M18 Aspartyl Aminopeptidase (PFM18AAP). [Related PubChem assays: 1619 (Screening assay (M17LAP inhibitors).), 1445 (Screening assay (M1AAP inhibitors).)]
# Aspartyl aminopeptidase, sequence (Q8I2J3 whole entry): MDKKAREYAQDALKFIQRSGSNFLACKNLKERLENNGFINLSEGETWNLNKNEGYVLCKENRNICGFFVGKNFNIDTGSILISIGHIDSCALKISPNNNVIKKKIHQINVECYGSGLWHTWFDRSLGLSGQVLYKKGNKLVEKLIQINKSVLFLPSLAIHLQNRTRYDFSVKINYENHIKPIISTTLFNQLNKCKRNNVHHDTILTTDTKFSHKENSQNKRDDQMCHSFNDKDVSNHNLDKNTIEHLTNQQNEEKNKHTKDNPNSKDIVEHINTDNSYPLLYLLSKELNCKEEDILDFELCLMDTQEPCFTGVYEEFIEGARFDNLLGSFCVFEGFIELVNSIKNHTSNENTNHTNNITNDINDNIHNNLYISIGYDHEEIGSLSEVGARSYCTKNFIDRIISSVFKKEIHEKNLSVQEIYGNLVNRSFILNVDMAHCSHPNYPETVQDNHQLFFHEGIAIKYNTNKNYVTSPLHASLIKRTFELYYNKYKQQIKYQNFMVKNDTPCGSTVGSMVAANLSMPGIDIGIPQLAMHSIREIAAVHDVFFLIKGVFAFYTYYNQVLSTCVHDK
# Large T antigen = Large T antigen (Simian virus 40, UniProt P03070); assay type: functional, Betapolyomavirus macacae;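 note: Confirmatory-stage PubChem screen for compounds that inhibit SV40 T antigen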
# Large T antigen, sequence (P03070 whole entry): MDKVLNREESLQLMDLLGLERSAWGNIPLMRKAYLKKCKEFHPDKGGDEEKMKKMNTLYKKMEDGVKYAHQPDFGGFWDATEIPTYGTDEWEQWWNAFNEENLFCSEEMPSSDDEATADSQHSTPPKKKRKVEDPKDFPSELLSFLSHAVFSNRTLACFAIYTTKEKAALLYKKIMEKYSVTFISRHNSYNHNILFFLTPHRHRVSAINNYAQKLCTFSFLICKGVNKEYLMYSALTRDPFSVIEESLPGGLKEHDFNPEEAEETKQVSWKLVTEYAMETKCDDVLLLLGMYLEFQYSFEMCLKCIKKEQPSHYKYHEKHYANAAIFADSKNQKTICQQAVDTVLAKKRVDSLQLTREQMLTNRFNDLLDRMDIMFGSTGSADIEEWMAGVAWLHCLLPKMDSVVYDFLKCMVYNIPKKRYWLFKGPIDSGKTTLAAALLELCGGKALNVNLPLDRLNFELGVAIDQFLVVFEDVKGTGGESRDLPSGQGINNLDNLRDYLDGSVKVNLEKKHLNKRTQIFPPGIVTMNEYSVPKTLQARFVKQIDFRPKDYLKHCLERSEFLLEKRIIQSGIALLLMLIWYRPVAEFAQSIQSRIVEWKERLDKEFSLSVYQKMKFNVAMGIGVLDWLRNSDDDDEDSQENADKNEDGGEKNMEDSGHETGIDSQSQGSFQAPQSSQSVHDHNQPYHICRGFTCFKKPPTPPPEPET
# Procathepsin L = Procathepsin L (Homo sapiens, UniProt P07711); assay: cathepsin L inhibitors, dose response, counter-screen for M1/M17 aminopeptidase inhibitor project, biochemical, QFRET, 1536-well (AID 2214)
# Procathepsin L, sequence (P07711 whole entry): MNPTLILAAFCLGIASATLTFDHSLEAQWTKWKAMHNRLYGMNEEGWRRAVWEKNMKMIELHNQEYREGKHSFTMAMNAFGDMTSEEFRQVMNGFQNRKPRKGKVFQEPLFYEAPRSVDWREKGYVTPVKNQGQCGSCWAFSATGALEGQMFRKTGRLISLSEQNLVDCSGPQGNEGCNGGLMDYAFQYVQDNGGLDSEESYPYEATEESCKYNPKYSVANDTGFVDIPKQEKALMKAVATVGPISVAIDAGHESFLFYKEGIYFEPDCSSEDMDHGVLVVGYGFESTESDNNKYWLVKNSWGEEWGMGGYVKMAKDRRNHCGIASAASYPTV
# [9] = tested on: Streptococcus sp. 'group A'; assay: growth inhibition of control SK(-) GAS strain, dose response, counter-screen for streptokinase expression inhibitor project, luminescence, kanamycin, BacTiterGlo, confirmation (AID 1900); assay type: functional, organism-based
# Streptococcus [10] = assay: Luminescence Microorganism-Based Dose Response Follow up to Identify Compounds Cytotoxic to Streptococcus. [Related pubchem assays: 1677 (Project Summary), 1915, 1914, 1902 (Retest at Dose), 1900 (Counter Screen), 1662 (Primary HTS)]; assay type: functional, organism-based
# Streptokinase A [11] = biological target: T2, Streptokinase A (Streptococcus pyogenes serotype M1, UniProt P10520); assay: S. pyogenes streptokinase expression inhibitors, potency, dose response, plasminogen activation absorbance, OD405 (AID 1914); assay type: functional, Streptococcus pyogenes M1 GAS;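 note: secreted streptokinase activity via plasminogen activation per viability signal from cell pellet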
# T2 sequence (P10520 whole entry): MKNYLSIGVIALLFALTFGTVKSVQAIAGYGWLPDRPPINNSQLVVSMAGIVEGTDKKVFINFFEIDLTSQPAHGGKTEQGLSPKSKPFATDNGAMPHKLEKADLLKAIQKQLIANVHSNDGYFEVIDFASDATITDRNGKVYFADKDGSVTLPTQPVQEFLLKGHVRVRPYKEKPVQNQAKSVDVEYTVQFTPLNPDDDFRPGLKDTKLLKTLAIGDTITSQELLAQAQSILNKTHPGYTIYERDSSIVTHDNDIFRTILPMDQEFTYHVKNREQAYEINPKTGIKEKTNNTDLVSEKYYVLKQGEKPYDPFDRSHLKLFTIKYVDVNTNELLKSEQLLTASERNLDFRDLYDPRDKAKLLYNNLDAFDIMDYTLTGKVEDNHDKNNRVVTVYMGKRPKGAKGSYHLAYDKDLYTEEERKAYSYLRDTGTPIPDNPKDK
# Streptokinase A [12] = biological target: T2, Streptokinase A; assay: Absorbance Microorganism-Based Dose Response Follow up to Identify Inhibitors of Streptokinase Expression. [Related pubchem assays: 1677 (Project Summary), 1915, 1914, 1902 (Retest at Dose), 1900 (Counter Screen), 1662 (Primary HTS)]; assay type: functional, Streptococcus pyogenes M1 GAS
# Streptococcus [13] = assay: Group A Streptococcus viability loss, dose response, counter-screen for streptokinase expression inhibitor project, luminescence, BacTiterGlo (AID 1915); assay type: functional, organism-based;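 note: potency for reduction of bacterial viability or growth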
# [14] = P. falciparum late gametocyte killing, dose response, luminescence (AID 1117278); assay type: functional, cell-based;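 note: gametocytes exposed to compound for 24 hours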
# [15] = Jurkat T cell cytotoxicity, dose response, cytotoxicity control for P. falciparum gametocyte viability project, luminescence (AID 1117277); assay type: functional, cell-based;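 note: potency reflects loss of cellular ATP meaning fewer viable cells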
# [16] = Absorbance Microorganism-Based Dose Response Follow up to Identify Inhibitors of Streptokinase Expression. [Related pubchem assays: 1677 (Project Summary), 1915, 1914, 1902 (Retest at Dose), 1900 (Counter Screen), 1662 (Primary HTS)]
smiles,measurement,setting,value
COc1cc2c(c(OC)c1OC)-c1ccc(OC)c(=O)cc1[C@@H](N(C)CC#CCO)CC2,EC50,BJ [1],9.89 µM (active)
same,EC50,BJ [2],16.7 µM (inconclusive)
same,IC50,[3],0.226 µM (active)
same,EC50,BJ [4],0.616 µM (inconclusive)
same,EC50,[5],1.45 µM (inconclusive)
same,IC50,[6],> 80 µM (inactive)
CCCCOC(=O)Nc1ccc(C)c(Cl)c1,IC50,[7],> 100 µM (active)
same,AC50,Cytochrome P450 2C9,11.2 µM (inconclusive)
Cc1cc(C(=O)CN(C)CC(=O)NC(C)C)c(C)n1Cc1ccccc1,EC50,[8],> 30 µM (not active)
CCN(CC)c1ccc(NC(=O)CSc2nnc(N)s2)cc1C,IC50,Leucine aminopeptidase,5.57 µM (active)
same,IC50,Aspartyl aminopeptidase,> 73.5 µM (not active)
same,IC50,Large T antigen,14.8 µM (active)
same,IC50,Procathepsin L,> 59.6 µM (not active)
COc1ccc(Sc2ccc(NC(=O)c3ccccc3Cl)cc2C#N)cc1,EC50,[9],1.21 µM (active)
same,EC50,Streptococcus [10],> 500 µM (not active)
same,EC50,Streptokinase A [11],4.98 µM (active)
same,EC50,Streptokinase A [12],3.14 µM (active)
same,EC50,Streptococcus [13],> 150 µM (not active)
same,IC50,[14],> 109 µM (inactive)
same,IC50,[15],> 9.26 µM (active)
same,AC50,Cytochrome P450 2C9,2.51 µM (inconclusive)
same,EC50,[16],2.27 µM (active)

# From ChEMBL document CHEMBL1201862, “PubChem BioAssay data set” (2004)
